According to patent US20030149242A1, “Novel polypeptide” (Pfizer Inc., priority 1999, published 2003):

Legend:
[1] = tested on: isolated human eosinophils; experiment: Human eosinophil chemotaxis assay (Boyden chamber) with histamine receptor subtype-selective agonists; assay type: cell-based; conditions: in vitro, agonist in bottom wells, 45 minutes, FIG. 9
Experimental: (§1) Eosinophils were isolated from peripheral blood as previously described (Hansel, T T., De Vries I J., Iff T., Rihs S., Wandzilak M., Betz S., Blaser K. and Walker C. (1991). An improved immunomagnetic procedure for the isolation of highly purified human blood eosinophils. J. Imm. Meth. 145:105-10). Chemotaxis was measured using a 48-well Boyden chamber (Neuro Probe Inc., Cabin John, Md., USA). Agonists were diluted in RPMI media (BioWhittaker, Walkersville, Md., USA) containing 0.1% bovine serum albumin (BSA) (Gibco BRL, Gaithersburg, Md., USA) and added to the bottom wells of the chemotaxis chamber. A 5 µm PVP-free polycarbonate filter was used to separate the wells of the chamber (Neuro Probe Inc., Cabin John, Md., USA). Eosinophils were resuspended in RPMI/BSA media at a concentration of 2.5×10^6 cells per ml. 50 µl of this cell suspension were then added to the upper chamber. Chambers were incubated for 45 minutes in a 5% CO2-humidified atmosphere at 37° C. After the incubation period, the filters were removed, the top side was scraped to remove non-migrating cells, and the filters were stained with Diff-Quik stain (Dade Behring AG, Dudingen, Switzerland). The number of cells migrating (bottom of filter) were counted by light microscopy. The mean of three high-powered fields was then determined. The number of migrating cells was calculated by subtracting […]. All compounds were purchased from Sigma-RBI.
Experiments were performed to characterise the histamine receptor subtype involved in the eosinophil chemotactic response to histamine. Methodology was as detailed above. […] Eotaxin was included as a positive control for eosinophil chemotaxis.

[2] = tested on: isolated human eosinophils; conditions: described by Raible et al. (1994); cited from earlier work
PFI-013 [3] = biological target: T1, PFI-013 (Homo sapiens, UniProt Q9H3N8); experiment: FLIPR functional cell-based assay (intracellular calcium) in PFI-013-transfected HEK293 cells expressing mouse Gα15; parameters: expressed in transfected cells; host or cells: HEK293 cells expressing mouse Gα15, transient transfection; conditions: for activation of PFI-013 by histaminergic compounds: FIG. 8, rank order of potency N-α-methyl histamine > histamine > R-α-methyl histamine = histamine-1-methyl
T1 sequence (Q9H3N8 whole entry): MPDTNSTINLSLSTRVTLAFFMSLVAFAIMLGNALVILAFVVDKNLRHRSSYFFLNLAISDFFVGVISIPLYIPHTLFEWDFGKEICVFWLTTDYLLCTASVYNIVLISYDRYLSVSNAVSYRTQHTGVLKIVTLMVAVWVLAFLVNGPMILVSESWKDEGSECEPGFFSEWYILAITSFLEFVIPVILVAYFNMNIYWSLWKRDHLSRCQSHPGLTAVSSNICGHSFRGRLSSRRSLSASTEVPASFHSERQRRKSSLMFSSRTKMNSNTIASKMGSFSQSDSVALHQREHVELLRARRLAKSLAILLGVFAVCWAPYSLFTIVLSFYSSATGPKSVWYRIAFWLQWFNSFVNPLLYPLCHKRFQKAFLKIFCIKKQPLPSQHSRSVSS
Experimental: Fluorescence Imaging Plate Reader (FLIPR®) technology was employed as a means to detect activation of PFI-013 by histamine or histamine agonists in a cell-based assay.
5×10^6 Human Embryonic Kidney (HEK) 293 cells expressing the mouse Gα15 gene (from here on called ‘293 cells’), were transiently transfected with 7.5 μg of PFI-013 (contained within the pcDNA4HISmaxB (Invitrogen) plasmid) vector, or vector alone, using Lipofectamine Plus® reagent (Gibco BRL) as per the manufacturer's protocol. The PFI-013 cDNA had been cloned into pcDNA4HISmaxB using restriction sites KpnI and NotI to excise the PFI-013 cDNA from pcDNA3.1/V5-His-TOPO and to insert the cDNA into pcDNA4HISmaxB using standard molecular biology techniques (e.g. according to Sambrook, et al., eds. (1989) Molecular Cloning: A Laboratory Manual, Cold Spring Harbor Laboratory Press, New York, N.Y., USA) and using T4 DNA ligase to join the fragments; pcDNA4HISmaxB was used as it contains elements that up-regulate the level of gene transcription over standard pcDNA3.1 vectors). 24 hrs post-transfection, the cells were detached from the flask using Trypsin/EDTA solution (LTI) and seeded into a black sided, Poly-D-lysine-treated, 96-well plate (Becton Dickinson) at 5×10^4 cells/well density. The plates were left overnight to allow the cells to adhere to the bottom of the wells. The medium was removed from the cells and replaced with 100 μl warm (37° C.) dye loading solution (50 μg Fluo3 (Molecular probes) in 20 μl DMSO+20% pluronic acid in DMSO, added to 11 ml Dulbecco's Modified Eagles Medium containing 1×Probenecid (100×Probenecid—0.71 g Probenecid was dissolved in 5 ml 1M NaOH and 5 ml Dulbeccos' Phosphate Buffered Saline (PBS), per plate; Probenecid (Molecular Devices) inhibits activity of the anion transport protein, thus improving dye loading). The plates were then incubated for 1 hr at 37° C. Plates were subsequently washed with 250 μl of wash buffer per well (5 ml 100×Probenecid stock+495 ml PBS, pH 7.4) 4 times. The plates were returned to the 37° C./5% CO2 incubator for 30 mins prior to processing within the FLIPR® instrument. The FLIPR® processing involved reading the fluorescence for all samples for 2 minutes; during this time the fluorescence baseline was determined for 10 seconds. The desired amount of compound (i.e. histamine or histamine agonists) was then automatically transferred to the wells and the fluorescence was continuously monitored for the remainder of the time. All compounds were diluted in wash buffer.
Using methodology as described in detail above, the effect of histamine on the functional activation of PFI-013 was investigated.
Using methodology as described in detail above, the effect of histaminergic compounds on the functional activation of PFI-013 was investigated.
FIG. 8 depicts the action of various histaminergic compounds (columns 2 to 10) serially diluted from […] (rows A and B) down to 0.5 μM in duplicate (rows G and H), on PFI-013-transfected 293 cells (FIG. 8A) or vector-only transfected 293 cells (FIG. 8B). Remaining wells contained buffer only with no compound.

[4] = tested on: isolated human eosinophils; experiment: Inhibition of histamine-induced chemotaxis of IL-5-primed human eosinophils; assay type: cell-based; conditions: for IC50: Homo sapiens, Eosinophil, histamine 30 nM as agonist, antagonists at 10, 1 and 0.1 μM, preliminary results, FIG. 10C, read-out: IC50 for antagonising histamine-induced chemotaxis of human eosinophils; for reduction of the chemotactic response of isolated human eosinophils to histamine dihydrochloride: antagonists at a single concentration of 10 μM, IL-5-primed eosinophils, FIG. 10B
Experimental: as §1
Antagonist experiments were performed to further characterise the histamine receptor subtype involved in the eosinophil chemotactic response to histamine. […] Antagonists were used at a single concentration of 10 μM. Antagonists tested were: mepyramine maleate (histamine H1 antagonist), cimetidine (histamine H2 antagonist), thioperamide (histamine H3 antagonist) and clobenpropit (histamine H3 antagonist).
A further experiment was performed to determine the IC50 of both thioperamide and clobenpropit (histamine H3 antagonists) for inhibiting isolated human eosinophil in vitro chemotaxis. Methodology was as above, using thioperamide and clobenpropit at 10 μM, 1 μM and 0.1 μM concentrations (Histamine, as the agonist, was used at 30 nM).

PFI-013 [5] = biological target: T1, PFI-013; conditions: 3H-histamine 0.72-1500 nM; difference between PFI-013-transfected and mock-transfected CHO-K1 membranes; preliminary data, FIG. 6

| Compound | chemotactic response of isolated human eosinophils [1] | activation of PFI-013 by histaminergic compounds (PFI-013 [3]) | also measured |
| --- | --- | --- | --- |
| CNC(=S)NCCCCc1cnc[nH]1 [Burimamide] | displayed no chemotactic activity | – | effect on intracellular Ca2+ production in isolated human eosinophils [2]: partial agonist effect |
| CN(C)CCCSC(=N)N [Dimaprit] | displayed no chemotactic activity | no activation of PFI-013 could be detected | – |
| CC(CCCCC(=O)Nc1ccc(C(F)(F)F)cc1)NCCc1cnc[nH]1.O=C(O)/C=C\C(=O)O.O=C(O)/C=C\C(=O)O (stereo not shown) [HTMT, HTMT dimaleate] | very weak chemotactic response only at the highest concentration tested (1 μM) | – | – |
| N=C(N)SCCc1cnc[nH]1 [Imetit] | displayed no chemotactic activity | no activation of PFI-013 could be detected | – |
| N[C@@H](Cc1c[nH]cn1)C(=O)O [L-histidine] | – | no activation of PFI-013 could be detected | – |
| CNCCc1cnc[nH]1 [N-α-methyl histamine] | – | activated | – |
| C[C@@H](N)Cc1c[nH]cn1 [R-α-methyl histamine] | – | activated | – |
| NC(=NCc1ccc(Cl)cc1)SCCCc1cnc[nH]1 [clobenpropit] | – | no activation of PFI-013 could be detected | IC50 [4]: 1500 nM; reduction of the chemotactic response of isolated human eosinophils to histamine dihydrochloride [4]: greatest effect on the reduction of the chemotactic response |
| Cl.Cl.NCCc1c[nH]cn1 [histamine dihydrochloride] | induced a significant chemotactic response | – | – |
| Cn1cnc(CCN)c1 [histamine-1-methyl] | – | activated | – |
| NCCc1c[nH]cn1 [histamine] | – | activated | activation of PFI-013 by histamine (transient increase in intracellular calcium) (PFI-013 [3]; at the 10 μM concentration, tested 10 μM serially diluted in log steps down to 10 pM, versus vector-only cells, FIG. 7): specific activation of PFI-013; binding of histamine to PFI-013 (PFI-013 [5]): binds to PFI-013, albeit with relatively low affinity |
| COc1ccc2c(c1OC)C(=O)O[C@@H]2[C@H]1c2c(cc3c(c2OC)OCO3)CCN1C [noscapine] | – | no activation of PFI-013 could be detected | – |
| S=C(NC1CCCCC1)N1CCC(c2cnc[nH]2)CC1 [thioperamide] | – | – | IC50 [4]: 830 nM; reduction of the chemotactic response of isolated human eosinophils to histamine dihydrochloride [4]: greatest effect on the reduction of the chemotactic response |
| IL-5: interleukin-5, used to prime the eosinophils for chemotaxis studies | – | – | effect of IL-5 priming of eosinophils on the chemotactic response to histamine ([4]; IL-5 pretreatment of the eosinophils, FIG. 10A): enhance the chemotactic response to histamine |
